Data set [1] concerns humans. In words: Open label dose-escalating safety and tolerability study of dietary agmatine sulfate capsules (Example I). The data set is classed as in vivo, human. The note with it: for Adverse Effects (no. of participants): Nausea and Diarrhea: 12 participants. How it is done:
This study is based on administration to humans weighing 60 to 70 kg.
Agmatine sulfate was manufactured according to international standards ISO 9001. It was encapsulated under cGMP (current Good Manufacturing Practice) conditions in gelatin-glycerin capsules as the sole active ingredient of the dietary supplement and the capsules packaged in properly labeled plastic container bottles.
The study was performed at Tel-Aviv Sourasky Medical Center, Israel and approved by the Institutional Review Board (Trial Number: 05-302) and by the Israel Ministry of Health National Review Board (Trial Number: 20050479), and conducted in accordance with the Helsinki guidelines under current Good Clinical Practice (cGCP) and the International Conference on Harmonization (ICH) guidelines. All procedures were performed after participants had read, understood and signed the informed consent form. Eligibility of consenting participants was determined after medical history recording, comprehensive clinical examination, and laboratory tests of blood samples to ensure inclusion/exclusion criteria.
Inclusion Criteria: 1) Men and women 18-75 years of age, including also those diagnosed with spine skeletal pathologies causing nerve compression. 2) Women must be non-pregnant, non-lactating, or sterilized, or postmenopausal. 3) All participants must give a signed informed consent.
Exclusion Criteria: 1) Those with any significant clinical, medical or surgical condition, such as: cardiovascular, pulmonary, hepatic, renal, immune, endocrine, metabolic, digestive, malignancy, or allergic, and those with deviations from the normal laboratory test values. 2) Those with any neuromuscular diseases (other than spine skeletal pathologies causing nerve compression). 3) Those with any neurological diseases. 4) Those with any history of alcohol or substance abuse within the last 2 years. 5) Those with gastric ulcer history. 6) Those who took any experimental drug within 90 days prior to screening. 7) Women who are pregnant or breast feeding. 8) Those participating in other clinical trials.
At the starting day of the study eligible participants began taking the supplement and had the option of receiving concomitantly any conventional treatment [e.g. drug treatment or physiotherapy] as needed for their welfare, and this was recorded throughout the duration of the study. However, any other experimental drug or dietary supplement was disallowed.
Table 1 details the escalating doses and regimens taken by the consecutive cohorts. Following screening to ensure inclusion/exclusion criteria, 48 men and women, 28 to 70 years old were recruited consecutively to the study after they gave a signed informed consent. Eligible participants took 3 times a day, after meals (morning, noontime and evening), the specified daily dose of agmatine sulfate capsules. Each capsule contained 445 mg of agmatine sulfate (Table 1).
Before beginning and within 5 days after termination—and before the next cohort began taking the supplement—all cohort participants underwent thorough clinical evaluation and routine laboratory tests of blood samples to ascertain normal function of the cardiovascular, hepatic, renal, immune and metabolic systems.
In-person evaluations were performed at: 11-15 days, 22-25 days, 40-45 days after treatment starting day (day 1), and then telephone interview evaluations every 3-6 months for the duration of the trial. The flow chart (2) outlined in FIG. 2 illustrates the treatment and follow-up schedules as exemplified for a 10-day cohort. In addition, participants received a “participant diary” for self recording of any outstanding health related events during the treatment interval.
For the sake of privacy, all records and data were identified only by participants' code number. All “source data” documents were stored in individual patient files and kept at the clinical center by the principal investigator and copies are kept with the study sponsor. […]

Data set [2] has as its system humans. Described as above. The data set is classed as in vivo, human. The note with it: oral doses of up to 2.67 g/day for over 2 years.
Where [3] appears, read: 4th Cohort, 3.560 g/day for 21 days.

SMILES strings stand for the structures.

`N=C(N)NCCCCN.O=S(=O)(O)O` [agmatine sulfate]: in the data set with humans [1] (3rd Cohort, 3.560 g/day for 10 days), the “Adverse Effects (no. of participants): Nausea and Diarrhea” value turned out to be 1. Besides, in the data set on humans [1] (3.560 g/day), the “Onset of diarrhea and nausea during treatment” value fell in the range of 2 to 3 days; the “Time to disappearance of diarrhea and nausea after treatment cessation” value was at most 2 days. In the data set on humans [1] (setting [3]), the “Discontinuations - Due to Adverse Effects (no. of participants)” value is 1; the “Free Will Discontinuations (no. of participants)” value is listed as 1; the “Adverse Effects (no. of participants): Nausea and Diarrhea” value is listed as 2. The “Clinical examinations and laboratory analyses of blood samples” value with humans [1] (all 48 participants, 1.335-3.560 g/day) is listed as “no abnormality in any parameter studied”. In the data set on humans [1] (of 48 participants), the “Number of participants who failed to complete the study” value came to 2. For the same compound, the “Number of participants reporting mild-to-moderate side effects (diarrhea and nausea)” value with humans [1] (of 48 participants, all at 3.560 g/day) is given as 3. In the data set with humans [1] (oral doses of up to 3.56 g/day), the Adverse effects result was “only mild, reversible diarrhea was observed”. The Adverse effects result in the data set with humans [2] is “have not been associated with any adverse effects”.

These data come from US8916612B2, “Agmatine containing dietary supplements, nutraceuticals, and foods” (priority 2008, dated 2014).
